Measured values published in US10975037B2 (priority 2018, dated 2021).
Read-outs that look alike come from different tables or passages of the source.

Columns and labels:
[1] = biological target: human RORγt ligand binding domain (RORγt LBD) (Homo sapiens (Human), UniProt P51449); test: RORγt ThermoFluor® assay (thermal shift binding)
Summary of the method: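 Thermal shift with 0.065 mg/mL RORγt LBD and 60 μM 1,8-ANS in 100 mM Hepes pH 7.0, 10 mM NaCl, 2.5 mM GSH, 0.002% Tween-20.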

full-length human RORγt = full-length human RORγt (Homo sapiens (Human), UniProt P51449); test: RORγt (full-length human) reporter assay, conditions A or B, HEK293T cells; format: cell-based; settings: for IC50: RORγt (FL) Reporter Assay A or B, IC50, HEK293T cells; for inhibition at 6 µM: read-out: RORγt (FL) Reporter Assay A or B, % inhibition @ 6 μM, 6 μM compound concentration
Chain of full-length human RORγt (P51449 other isoform, or with tags, fused parts or gaps): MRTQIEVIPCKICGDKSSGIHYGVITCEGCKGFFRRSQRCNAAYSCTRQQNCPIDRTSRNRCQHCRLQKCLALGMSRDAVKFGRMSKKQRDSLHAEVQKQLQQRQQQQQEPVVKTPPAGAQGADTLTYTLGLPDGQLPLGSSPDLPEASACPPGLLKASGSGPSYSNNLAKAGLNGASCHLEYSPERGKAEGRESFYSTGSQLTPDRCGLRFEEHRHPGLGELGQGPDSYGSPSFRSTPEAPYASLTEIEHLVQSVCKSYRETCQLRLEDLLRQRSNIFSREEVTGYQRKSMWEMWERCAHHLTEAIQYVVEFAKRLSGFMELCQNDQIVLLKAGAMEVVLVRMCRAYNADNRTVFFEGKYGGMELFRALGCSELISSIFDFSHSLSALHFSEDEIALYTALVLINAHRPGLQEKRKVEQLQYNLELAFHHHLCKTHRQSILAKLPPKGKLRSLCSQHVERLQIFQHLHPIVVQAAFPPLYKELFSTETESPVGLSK
Summary of the method: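 Dual-luciferase read-out was taken after an overnight (16–20 h) compound exposure. Firefly data were scaled between DMSO-only and saturating reference compound, Renilla-normalized, then plotted against concentration for IC50.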

[2] = read-out: ThermoFluor® Assay, Kd
[3] = HEK-293T, 0.67 μM compound concentration (footnote ****), read-out: RORγt (FL) Reporter Assay A or B, % inhibition
[4] = HEK-293T, read-out: RORγt (FL) Reporter Assay A or B, % inhibition
[5] = HEK-293T, 0.33 μM compound concentration (footnote *****), read-out: RORγt (FL) Reporter Assay A or B, % inhibition
[6] = HEK-293T, 3 μM compound concentration (footnote *), read-out: RORγt (FL) Reporter Assay A or B, % inhibition

Chain of human RORγt ligand binding domain (RORγt LBD) (P51449 other isoform, or with tags, fused parts or gaps): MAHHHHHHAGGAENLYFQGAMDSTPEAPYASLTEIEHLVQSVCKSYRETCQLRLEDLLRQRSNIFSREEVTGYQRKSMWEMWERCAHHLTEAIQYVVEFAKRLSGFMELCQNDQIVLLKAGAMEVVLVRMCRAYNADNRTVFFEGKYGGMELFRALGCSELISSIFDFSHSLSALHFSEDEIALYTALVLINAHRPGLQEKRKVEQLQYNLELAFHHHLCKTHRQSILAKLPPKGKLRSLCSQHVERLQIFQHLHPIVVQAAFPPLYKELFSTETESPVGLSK

Row | SMILES | Kd [1, 2] [nM] | IC50 (full-length human RORγt) [nM] | further results
1 | CCn1nc(C(=O)NC[C@]2(O)CC[C@@H](S(C)(=O)=O)CC2)c(Cl)c1-c1ccc(CCCC(F)(F)F)cc1OC [Example 81, 4-Chloro-1-ethyl-N-(((1s,4s)-1-hydroxy-4-(methylsulfonyl)cyclohexyl)methyl)-5-(2-methoxy-4-(4,4,4-trifluorobutyl)phenyl)-1H-pyrazole-3-carboxamide] | 5.1 | 13 | inhibition at 2 µM (full-length human RORγt; HEK-293T, 2 μM compound concentration, read-out: RORγt (FL) Reporter Assay A or B, % inhibition): 89%
2 | CCn1nc(C(=O)NC[C@H]2CC[C@H](S(C)(=O)=O)CC2)c(C)c1-c1ccc(CCCC(F)(F)F)cc1OC [Example 82, 1-Ethyl-5-(2-methoxy-4-(4,4,4-trifluorobutyl)phenyl)-4-methyl-N-(((1r,4r)-4-(methylsulfonyl)cyclohexyl)methyl)-1H-pyrazole-3-carboxamide] | 4.1 | 14 | inhibition at 0.67 µM (full-length human RORγt; [3]): 87%
3 | CCn1nc(C(=O)NC[C@]2(O)CC[C@@H](S(C)(=O)=O)CC2)c(C)c1-c1ccc(CCCC(F)(F)F)cc1OC [Example 83, 1-Ethyl-N-(((1s,4s)-1-hydroxy-4-(methylsulfonyl)cyclohexyl)methyl)-5-(2-methoxy-4-(4,4,4-trifluorobutyl)phenyl)-4-methyl-1H-pyrazole-3-carboxamide] | 11 | 33 | inhibition at 0.67 µM (full-length human RORγt; [3]): 87%
4 | CCn1nc(C(=O)NC[C@H]2CC[C@H](S(C)(=O)=O)CC2)c(Cl)c1-c1ccc(CC(C(F)(F)F)C(F)(F)F)cc1OC [Example 84, 4-Chloro-1-ethyl-5-(2-methoxy-4-(3,3,3-trifluoro-2-(trifluoromethyl)propyl)phenyl)-N-(((1r,4r)-4-(methylsulfonyl)cyclohexyl)methyl)-1H-pyrazole-3-carboxamide] | 0.7 | 10 | inhibition at 0.67 µM (full-length human RORγt; [4]): 87%
5 | CCn1nc(C(=O)NC[C@H]2CC[C@H](S(C)(=O)=O)CC2)c(Cl)c1-c1ccc(CC(C(F)(F)F)C(F)(F)F)cc1OC(F)F [Example 86, 4-Chloro-5-(2-(difluoromethoxy)-4-(3,3,3-trifluoro-2-(trifluoromethyl)propyl)phenyl)-1-ethyl-N-(((1r,4r)-4-(methylsulfonyl)cyclohexyl)methyl)-1H-pyrazole-3-carboxamide] | 0.17 | 5.6 | inhibition at 0.67 µM (full-length human RORγt; [3]): 103%
6 | CCn1nc(C(=O)NC[C@H]2CC[C@H](S(C)(=O)=O)CC2)c(C)c1-c1ccc(CC(C(F)(F)F)C(F)(F)F)cc1OC(F)F [Example 87, 5-(2-(Difluoromethoxy)-4-(3,3,3-trifluoro-2-(trifluoromethyl)propyl)phenyl)-1-ethyl-4-methyl-N-(((1r,4r)-4-(methylsulfonyl)cyclohexyl)methyl)-1H-pyrazole-3-carboxamide] | 0.14 | 3 | inhibition at 0.07 µM (full-length human RORγt; HEK-293T, 0.07 μM compound concentration (footnote *********), read-out: RORγt (FL) Reporter Assay A or B, % inhibition): 100%
7 | CCn1nc(C(=O)NC[C@]2(O)CC[C@@H](S(C)(=O)=O)CC2)c(Cl)c1-c1ccc(CC(C)(C)C(F)(F)F)cc1C#N [Example 88, 4-Chloro-5-(2-cyano-4-(3,3,3-trifluoro-2,2-dimethylpropyl)phenyl)-1-ethyl-N-(((1s,4s)-1-hydroxy-4-(methylsulfonyl)cyclohexyl)methyl)-1H-pyrazole-3-carboxamide] | 15 | 130 | inhibition at 3 µM (full-length human RORγt; [4]): 88%
8 | CCn1nc(C(=O)NC[C@H]2CC[C@H](S(C)(=O)=O)CC2)c(Cl)c1-c1ccc(CC(C)(C)CC(F)(F)F)cc1OC(F)F [Example 89, 4-Chloro-5-(2-(difluoromethoxy)-4-(4,4,4-trifluoro-2,2-dimethylbutyl)phenyl)-1-ethyl-N-(((1r,4r)-4-(methylsulfonyl)cyclohexyl)methyl)-1H-pyrazole-3-carboxamide] | 0.24 | 5.4 | inhibition at […] (full-length human RORγt; [5]): 98%
9 | CCn1nc(C(=O)NC[C@]2(O)CC[C@@H](S(C)(=O)=O)CC2)c(Cl)c1-c1ccc(CC(C)(C)CC(F)(F)F)cc1OC(F)F [Example 90, 4-Chloro-5-(2-(difluoromethoxy)-4-(4,4,4-trifluoro-2,2-dimethylbutyl)phenyl)-1-ethyl-N-(((1s,4s)-1-hydroxy-4-(methylsulfonyl)cyclohexyl)methyl)-1H-pyrazole-3-carboxamide] | 0.51 | 9.6 | inhibition at […] (full-length human RORγt; [5]): 91%
10 | CCn1nc(C(=O)NC[C@]2(CO)CC[C@@H](S(C)(=O)=O)CC2)c(Cl)c1-c1ccc(CC(C)(C)C(F)(F)F)cc1OC(F)F [Example 91, 4-Chloro-5-(2-(difluoromethoxy)-4-(3,3,3-trifluoro-2,2-dimethylpropyl)phenyl)-1-ethyl-N-(((1s*,4s*)-1-(hydroxymethyl)-4-(methylsulfonyl)cyclohexyl)methyl)-1H-pyrazole-3-carboxamide] | 0.24 | 3.7 | inhibition at 1 µM (full-length human RORγt; HEK-293T, 1 μM compound concentration (footnote ***), read-out: RORγt (FL) Reporter Assay A or B, % inhibition): 99%

More lines, main results first:

Row | Kd [1, 2] [nM] | IC50 (full-length human RORγt) [nM] | SMILES | further results
11 | 310 | 71 | CCn1nc(C(=O)NC[C@]2(O)CC[C@@H](S(C)(=O)=O)CC2)c(Cl)c1-c1ccc(C(O)CCC(F)(F)F)cc1OC(F)F (stereo partly drawn) [Example 98, 4-Chloro-5-(2-(difluoromethoxy)-4-(4,4,4-trifluoro-1-hydroxybutyl)phenyl)-1-ethyl-N-(((1s,4s)-1-hydroxy-4-(methylsulfonyl)cyclohexyl)methyl)-1H-pyrazole-3-carboxamide] | inhibition at 3 µM (full-length human RORγt; [6]): 89%
12 | 47 | 220 | CCn1nc(C(=O)NC[C@]2(O)CC[C@@H](S(C)(=O)=O)CC2)c(Cl)c1-c1ccc(C2(O)CCC(F)(F)CC2)cc1OC(F)F [Example 104, 4-Chloro-5-(4-(4,4-difluoro-1-hydroxycyclohexyl)-2-(difluoromethoxy)phenyl)-1-ethyl-N-(((1s,4s)-1-hydroxy-4-(methylsulfonyl)cyclohexyl)methyl)-1H-pyrazole-3-carboxamide] | inhibition at 3 µM (full-length human RORγt; [6]): 98%
13 | 3.3 | 13 | CCn1nc(C(=O)NC[C@]2(O)CC[C@@H](S(C)(=O)=O)CC2)c(Cl)c1-c1ccc(C(=O)C(C)(C)C(F)(F)F)cc1OC(F)F [Example 105, 4-Chloro-5-(2-(difluoromethoxy)-4-(3,3,3-trifluoro-2,2-dimethylpropanoyl)phenyl)-1-ethyl-N-(((1s,4s)-1-hydroxy-4-(methylsulfonyl)cyclohexyl)methyl)-1H-pyrazole-3-carboxamide] | inhibition at 3 µM (full-length human RORγt; [4]): 28%
14 | 0.15 | 3.4 | CCn1nc(C(=O)NC[C@H]2CC[C@H](S(C)(=O)=O)CC2)c(Cl)c1-c1ccc(C(O)(C(F)(F)F)C(F)(F)F)cc1OC(F)F [Example 116, 4-Chloro-5-(2-(difluoromethoxy)-4-(1,1,1,3,3,3-hexafluoro-2-hydroxypropan-2-yl)phenyl)-1-ethyl-N-(((1r,4r)-4-(methylsulfonyl)cyclohexyl)methyl)-1H-pyrazole-3-carboxamide] | inhibition at 3 µM (full-length human RORγt; [6]): 106%
15 | 0.27 | 4.2 | CCn1nc(C(=O)NC[C@]2(O)CC[C@@H](S(C)(=O)=O)CC2)c(Cl)c1-c1ccc(C(O)(C(F)(F)F)C(F)(F)F)cc1OC(F)F [Example 117, 4-Chloro-5-(2-(difluoromethoxy)-4-(1,1,1,3,3,3-hexafluoro-2-hydroxypropan-2-yl)phenyl)-1-ethyl-N-(((1s,4s)-1-hydroxy-4-(methylsulfonyl)cyclohexyl)methyl)-1H-pyrazole-3-carboxamide] | inhibition at 3 µM (full-length human RORγt; [6]): 102%
16 |  | > 6000 | CCn1nc(C(=O)NC[C@]2(C(=O)O)CC[C@@H](S(C)(=O)=O)CC2)c(Cl)c1-c1ccc(CC(C)(C)C(F)(F)F)cc1OC(F)F [Example 119, (1s*,4s*)-1-((4-Chloro-5-(2-(difluoromethoxy)-4-(3,3,3-trifluoro-2,2-dimethylpropyl)phenyl)-1-ethyl-1H-pyrazole-3-carboxamido)methyl)-4-(methylsulfonyl)cyclohexane-1-carboxylic Acid] | Kd ([1]; ThermoFluor® Assay, Kd): 1500 nM; inhibition at 6 µM (full-length human RORγt; HEK-293T): 14%
17 |  | 28 | CCOC(=O)[C@]1(CNC(=O)c2nn(CC)c(-c3ccc(CC(C)(C)C(F)(F)F)cc3OC(F)F)c2Cl)CC[C@@H](S(C)(=O)=O)CC1 [Example 120, Ethyl (1r*,4r*)-1-((4-chloro-5-(2-(difluoromethoxy)-4-(3,3,3-trifluoro-2,2-dimethylpropyl)phenyl)-1-ethyl-1H-pyrazole-3-carboxamido)methyl)-4-(methylsulfonyl)cyclohexane-1-carboxylate] | Kd ([1]; ThermoFluor® Assay, Kd): 10 nM; inhibition at […] (full-length human RORγt; HEK-293T, 0.22 μM compound concentration (footnote *******), read-out: RORγt (FL) Reporter Assay A or B, % inhibition): 92%
18 |  | 830 | CCn1nc(C(=O)NC[C@]2(C(=O)O)CC[C@H](S(C)(=O)=O)CC2)c(Cl)c1-c1ccc(CC(C)(C)C(F)(F)F)cc1OC(F)F [Example 121, (1r*,4r*)-1-((4-Chloro-5-(2-(difluoromethoxy)-4-(3,3,3-trifluoro-2,2-dimethylpropyl)phenyl)-1-ethyl-1H-pyrazole-3-carboxamido)methyl)-4-(methylsulfonyl)cyclohexane-1-carboxylic Acid] | Kd ([1]; ThermoFluor® Assay, Kd): 43 nM; inhibition at 6 µM (full-length human RORγt; HEK-293T): 106%
